Measurements taken from article PMC6440935, “Characterization and phase I study of CLR457, an orally bioavailable pan-class I PI3-kinase inhibitor” (Investigational New Drugs, 2018).
Like-named read-outs stand apart in the source and are kept apart here.

Excerpt: The primary objective was to define the maximum tolerated dose (MTD). Secondary objectives included assessments for safety, tolerability, pharmacokinetic (PK) profile, and preliminary antitumor activity.
Patients had histologically documented locally advanced or metastatic solid tumors harboring an activating PIK3CA mutation or amplification, PTEN loss of function, c-MET activation, [16, 17] […] Other key inclusion criteria included age ≥ 18 years, Eastern Cooperative Oncology Group performance status (ECOG-PS) ≤2, adequate organ function, measurable or non-measurable disease as determined by Response Evaluation Criteria in Solid Tumors (RECIST) version 1.1.
The starting dose for CLR457 was 5 mg QD, based on preclinical toxicology studies in accordance with ICH guidelines, and was administered at the same time each day ±2 h in a fasted state. Various doses were planned up to 300 mg QD until MTD determination.
Safety was evaluated by incidence, nature, severity, and relatedness of adverse events (AEs), and graded according to National Cancer Institute - Common Terminology Criteria for Adverse Events (NCI CTCAE) v4.0.3. DLTs were defined as any hematologic or non-hematologic ≥ Grade 3 AE assessed as possibly related to CLR457 that occurred within the first cycle (28 days) of treatment. In addition, uncontrolled (> 14 days) Grade 2 rash or hyperglycemia were also considered DLTs. All AEs regardless of attribution were collected until 30 days following the last administration of treatment or study discontinuation/termination.
Descriptive methods were used to tabulate toxicity and response endpoints in the clinical trial. All patients treated with CLR457 were included for safety. […] Dose escalation was guided by an adaptive Bayesian logistic regression model (BLRM) incorporating the escalation with overdose control (EWOC) principle. […] The study data (including DLTs during cycle 1 and other safety and PK data) were reviewed by the sponsor and trial investigators at each dose level. […] The Full Analysis Set (FAS) included all patients who received at least one dose of CLR457. Safety set included all patients who received at least one dose of CLR457 and had at least one valid post-baseline assessment. The Dose-determining set (DDS) included all patients from the safety set who either met the following minimum exposure criterion and had sufficient safety evaluations, or experienced a DLT during Cycle 1 (the first 28 days of dosing). The Pharmacokinetic analysis set included all patients who had at least one blood sample providing evaluable PK data.

C[C@H]1OC(=O)N(c2cc(-c3cnc(N)nc3C(F)(F)F)nc(N3CCOCC3)n2)[C@H]1CO [CLR457]
DLT hyperglycemia in the first cycle (5 mg, DDS N = 2): 0 n (%)
DLT maculo-papular rash in the first cycle (5 mg, DDS N = 2): 0 n (%)
Total DLTs in the first cycle (5 mg, DDS N = 2): 0 n (%)
Treatment discontinuation, primary reason adverse event (5 mg, FAS N = 2): 0 n (%)
DLT hyperglycemia in the first cycle (10 mg, DDS N = 3): 0 n (%)
DLT maculo-papular rash in the first cycle (10 mg, DDS N = 3): 0 n (%)
Total DLTs in the first cycle (10 mg, DDS N = 3): 0 n (%)
Treatment discontinuation, primary reason adverse event (10 mg, FAS N = 3): 0 n (%)
DLT hyperglycemia in the first cycle (20 mg, DDS N = 4): 0 n (%)
DLT maculo-papular rash in the first cycle (20 mg, DDS N = 4): 0 n (%)
Total DLTs in the first cycle (20 mg, DDS N = 4): 0 n (%)
Treatment discontinuation, primary reason adverse event (20 mg, FAS N = 4): 0 n (%)
DLT maculo-papular rash (40 mg): one
DLT hyperglycemia in the first cycle (40 mg, DDS N = 5): 0 n (%)
DLT maculo-papular rash in the first cycle (40 mg, DDS N = 5): 1 (20.0) n (%)
Total DLTs in the first cycle (40 mg, DDS N = 5): 1 (20.0) n (%)
Treatment discontinuation, primary reason adverse event (40 mg, FAS N = 5): 1 (20.0) n (%)
DLT hyperglycemia in the first cycle (70 mg, DDS N = 6): 0 n (%)
DLT maculo-papular rash in the first cycle (70 mg, DDS N = 6): 0 n (%)
Total DLTs in the first cycle (70 mg, DDS N = 6): 0 n (%)
Treatment discontinuation, primary reason adverse event (70 mg, FAS N = 6): 0 n (%)
DLT Grade 3 hyperglycemia (100 mg): 1 patient
DLT maculo-papular rash (100 mg): two
Patients with ≥ grade 3 toxicity (100 mg cohort (n = 11)): 100%
Rash ≥ grade 3 (100 mg cohort (n = 11)): 45.5%
Patients with a DLT in the 100 mg cohort (100 mg, 3 of 11 patients): 27.3%
Patients with at least one SAE irrespective of treatment (100 mg, 7 of 11 pts): 63.6%
DLT hyperglycemia in the first cycle (100 mg, DDS N = 9): 1 (11.1) n (%)
DLT maculo-papular rash in the first cycle (100 mg, DDS N = 9): 2 (22.2) n (%)
Total DLTs in the first cycle (100 mg, DDS N = 9): 3 (33.3) n (%)
Treatment discontinuation, primary reason adverse event (100 mg, FAS N = 11): 4 (36.4) n (%)
Diarrhea requiring dose interruption or reduction (4 patients): 22%
Maculo-papular rash requiring dose interruption or reduction (8 patients): 44.44%
DLT hyperglycemia in the first cycle (All Patients, DDS N = 29): 1 (3.4) n (%)
DLT maculo-papular rash in the first cycle (All Patients, DDS N = 29): 3 (10.3) n (%)
Total DLTs in the first cycle (All Patients, DDS N = 29): 4 (13.8) n (%)
Treatment discontinuation, primary reason adverse event (All Patients, FAS N = 31): 5 (16.1) n (%)
DLT maculo-papular rash (all doses): 3 patients
On-study deaths attributed to the study drug (all patients): none
Maculo-papular rash, grade 3/4 (all patients N = 31): 25.8%
Patients with Grade 3/4 drug-related AEs (all patients N = 31): 51.6%
On-study deaths (all patients, 5 disease progression, 1 multi-organ failure): Six
AEs requiring dose interruptions or dose reductions (all patients, 18 patients): 58.1%
Asthenia, Grade ≥ 3 (drug-related, 5 mg, N = 2): 0 n (%)
Chills, All Grade (drug-related, 5 mg, N = 2): 0 n (%)
Chills, Grade ≥ 3 (drug-related, 5 mg, N = 2): 0 n (%)
Colitis, All Grade (drug-related, 5 mg, N = 2): 0 n (%)
Colitis, Grade ≥ 3 (drug-related, 5 mg, N = 2): 0 n (%)
Cough, All Grade (drug-related, 5 mg, N = 2): 0 n (%)
Cough, Grade ≥ 3 (drug-related, 5 mg, N = 2): 0 n (%)
Decreased appetite, All Grade (drug-related, 5 mg, N = 2): 0 n (%)
Decreased appetite, Grade ≥ 3 (drug-related, 5 mg, N = 2): 0 n (%)
Decreased neutrophil count, All Grade (drug-related, 5 mg, N = 2): 0 n (%)
Decreased neutrophil count, Grade ≥ 3 (drug-related, 5 mg, N = 2): 0 n (%)
Dehydration, All Grade (drug-related, 5 mg, N = 2): 0 n (%)
Dehydration, Grade ≥ 3 (drug-related, 5 mg, N = 2): 0 n (%)
Diarrhea, All Grade (drug-related, 5 mg, N = 2): 0 n (%)
Diarrhea, Grade ≥ 3 (drug-related, 5 mg, N = 2): 0 n (%)
Dry mouth, All Grade (drug-related, 5 mg, N = 2): 0 n (%)
Dry mouth, Grade ≥ 3 (drug-related, 5 mg, N = 2): 0 n (%)
Dry skin, All Grade (drug-related, 5 mg, N = 2): 0 n (%)
Dry skin, Grade ≥ 3 (drug-related, 5 mg, N = 2): 0 n (%)
Dysgeusia, All Grade (drug-related, 5 mg, N = 2): 0 n (%)
Dysgeusia, Grade ≥ 3 (drug-related, 5 mg, N = 2): 0 n (%)
Fatigue, All Grade (drug-related, 5 mg, N = 2): 1 (50.0) n (%)
Fatigue, Grade ≥ 3 (drug-related, 5 mg, N = 2): 0 n (%)
Headache, All Grade (drug-related, 5 mg, N = 2): 0 n (%)
Headache, Grade ≥ 3 (drug-related, 5 mg, N = 2): 0 n (%)
Hyperglycemia, All Grade (drug-related, 5 mg, N = 2): 0 n (%)
Hyperglycemia, Grade ≥ 3 (drug-related, 5 mg, N = 2): 0 n (%)
Hypomagnesaemia, All Grade (drug-related, 5 mg, N = 2): 0 n (%)
Hypomagnesaemia, Grade ≥ 3 (drug-related, 5 mg, N = 2): 0 n (%)
Maculo-papular rash, All Grade (drug-related, 5 mg, N = 2): 0 n (%)
Maculo-papular rash, Grade ≥ 3 (drug-related, 5 mg, N = 2): 0 n (%)
Nausea, All Grade (drug-related, 5 mg, N = 2): 0 n (%)
Nausea, Grade ≥ 3 (drug-related, 5 mg, N = 2): 0 n (%)
Pneumonitis, All Grade (drug-related, 5 mg, N = 2): 0 n (%)
Pneumonitis, Grade ≥ 3 (drug-related, 5 mg, N = 2): 0 n (%)
Pruritus, All Grade (drug-related, 5 mg, N = 2): 0 n (%)
Pruritus, Grade ≥ 3 (drug-related, 5 mg, N = 2): 0 n (%)
Pyrexia, All Grade (drug-related, 5 mg, N = 2): 0 n (%)
Pyrexia, Grade ≥ 3 (drug-related, 5 mg, N = 2): 0 n (%)
Rash, All Grade (drug-related, 5 mg, N = 2): 0 n (%)
Rash, Grade ≥ 3 (drug-related, 5 mg, N = 2): 0 n (%)
Stomatitis, All Grade (drug-related, 5 mg, N = 2): 0 n (%)
Stomatitis, Grade ≥ 3 (drug-related, 5 mg, N = 2): 0 n (%)
Vomiting, All Grade (drug-related, 5 mg, N = 2): 0 n (%)
Vomiting, Grade ≥ 3 (drug-related, 5 mg, N = 2): 0 n (%)
Weight decreased, All Grade (drug-related, 5 mg, N = 2): 0 n (%)
Weight decreased, Grade ≥ 3 (drug-related, 5 mg, N = 2): 0 n (%)
Asthenia, Grade ≥ 3 (drug-related, 10 mg, N = 3): 0 n (%)
Chills, All Grade (drug-related, 10 mg, N = 3): 0 n (%)
Chills, Grade ≥ 3 (drug-related, 10 mg, N = 3): 0 n (%)
Colitis, All Grade (drug-related, 10 mg, N = 3): 0 n (%)
Colitis, Grade ≥ 3 (drug-related, 10 mg, N = 3): 0 n (%)
Cough, All Grade (drug-related, 10 mg, N = 3): 0 n (%)
